According to patent publication US20080004290A1, “Anti-Cancer Agents” (THE UNIVERSITY OF QUEENSLAND, priority 2003, published 2008):
Like-named read-outs stand apart in the source and are kept apart here.

How the values were obtained:
MM96L melanoma cells = assay: Cell survival assay (clonogenic survival, SRB); assay type: cell-based, human; settings: for IC50: SRB; for SI (Selectivity Index = IC50 (NFF)/IC50 (MM96L)): NFF vs MM96L
Procedure: (§1) The cytotoxicities of the compounds of the invention were determined by clonogenic survival of human cancer cells (MM96L, melanoma) and human normal cells (NFF, neonatal foreskin fibroblasts). Cells were incubated with the compounds at various concentrations of compound (0.01-10 μg/mL) for 24 hours, washed, and then grown for a further four days in the absence of hydroxamic acid before determining cell survival by cell count. The final readout involved staining with sulforhodamine B (SRB), a cost-effective method amenable to automation and high throughput analysis. At the technical level, “cell sensitivity” is often inferred from short term (1-2 day) observations such as apoptosis, which may not be a satisfactory model of clonogenic survival.
(§2) Cell Lines and Culture Medium. All cell lines used in this study have been described previously (Parsons et al., 1986; Todaro et al., 1980; Glenn et al., 2004). All cell lines were cultured in 10% heat-inactivated foetal calf serum (CSL, Australia) in RPMI 1640 medium supplemented with 100 U/mL penicillin, 100 μg/mL streptomycin, and 3 mM HEPES at 5% CO2, 99% humidity at 37° C. Primary human fibroblasts were obtained from neonatal foreskins and cultured in the above medium. Routine mycoplasma tests were performed using Hoechst stain^i and were always negative.
(§3) Cell Survival Assay. Cells were plated into 96-well microtitre plates at 5×10^3 cells/well, and allowed to adhere overnight. Test compounds were added to culture medium at the indicated concentrations, and plates incubated in the above conditions for 24 hours. Following this incubation period, compounds and media were removed, and replaced with fresh culture medium. Cells were then grown for a further 72 hours before assay using sulforhodamine B (SRB; Sigma, St. Louis, Mo.) as previously described. Briefly, the culture medium was removed from the 96-well microtitre plates and the plates washed twice with phosphate buffered saline (PBS), before the cells were fixed with methylated spirits for 15 minutes. The plates were then rinsed with tap water and the fixed cells stained with 50 μL/well of SRB solution (0.4% sulforhodamine B (w/v) in 1% (v/v) acetic acid) over a period of 1 hour. The SRB solution was then removed from the wells and the plates rapidly washed two times with 1% (v/v) acetic acid. Protein bound dye was then solubilised with the addition of 100 μL of 10 mM unbuffered Tris, and incubated for 15 min at 25° C. Plates were then read at 564 nm on a VERSA max tunable microplate reader (Molecular Devices, Sunnyvale, Calif.).

[1] = test system: NFF, neonatal foreskin fibroblasts; assay: Cell survival assay (clonogenic survival, SRB), normal cells; assay type: cell-based, human; settings: SRB
Procedure: as §1, §2, §3

[2] = MM96L melanoma, 24 h with compound, further 72 h growth, read-out: IC50 (uM) MM96L
[3] = NFF normal fibroblasts, 24 h with compound, further 72 h growth, read-out: IC50 (uM) NFF
[4] = Table 8, 24 hours with compound, further growth, read-out: IC50 (μM) MM96
[5] = Table 8, IC50 (NFF)/IC50 (MM96L)
[6] = Table 8, 24 hours with compound, further growth, read-out: IC50 (μM) NFF
[7] = Homo sapiens, MM96L, 24 h, Table 6, 24 hours with compound, further growth, read-out: IC50 (μM) MM96L
[8] = Table 6, IC50 (NFF)/IC50 (MM96L)
[9] = Homo sapiens, Fibroblast, 24 h, Table 6, 24 hours with compound, further growth, read-out: IC50 (μM) NFF
[10] = Homo sapiens, MM96L, MM96L melanoma, 24 h with compound, further 72 h growth, read-out: IC50 (uM) MM96L
[11] = Homo sapiens, Fibroblast, NFF normal fibroblasts, 24 h with compound, further 72 h growth, read-out: IC50 (uM) NFF
[12] = Table 5, 24 hours with compound, further growth, read-out: IC50 MM96L
[13] = Table 5, Selectivity Index = IC50 (NFF)/IC50 (MM96L)
[14] = Table 5, 24 hours with compound, further growth, read-out: IC50 NFF
[15] = Table 6, 24 hours with compound, further growth, read-out: IC50 (μM) MM96L
[16] = Table 6, 24 hours with compound, further growth, read-out: IC50 (μM) NFF

Compound: CC(C)CCNC(=O)C(CCCCCC(=O)NO)NC(=O)c1ccco1 (racemic) [Example 144]
- IC50 (MM96L melanoma cells; [2]): 1.5 ± 0.2 µM
- SI (Selectivity Index = IC50 (NFF)/IC50 (MM96L)) (MM96L melanoma cells): 2.9
- IC50 [1, 3]: 4.4 ± 0.5 µM

Compound: CC(C)CNC(=O)c1ccc(CNC(=O)[C@H](CSCCCC(=O)NO)NC(=O)c2ccc(N(C)C)cc2)cc1 [Example 104]
- IC50 (MM96L melanoma cells; [4]): 1.62 µM
- Selectivity (MM96L melanoma cells; [5]): 5.0
- IC50 [1, 6]: 8.08 µM

Compound: CN(C)c1ccc(C(=O)N[C@@H](CSCCCC(=O)NO)C(=O)NCc2cccnc2)cc1 [Example 81]
- IC50 (MM96L melanoma cells; [7]): 1.49 ± 0.09 µM
- Selectivity (MM96L melanoma cells; [8]): 5.9
- IC50 [1, 9]: 8.8 ± 0.5 µM

Compound: CN(C)c1ccc(C(=O)N[C@@H](CSCCCC(=O)NO)C(=O)NC23CC4CC(CC(C4)C2)C3)cc1 [Example 92]
- IC50 (MM96L melanoma cells; [7]): 1.48 ± 0.08 µM
- Selectivity (MM96L melanoma cells; [8]): 4.8
- IC50 [1, 9]: 7.1 ± 0.5 µM

Compound: O=C(CCCCC[C@H](NC(=O)c1cc2ccccc2[nH]1)C(=O)NC1(Cc2ccccc2)CCCC1)NO [Example 129]
- IC50 (MM96L melanoma cells; [10]): 0.9 ± 0.2 µM
- SI (Selectivity Index = IC50 (NFF)/IC50 (MM96L)) (MM96L melanoma cells): 1.7
- IC50 [1, 11]: 1.6 ± 0.2 µM

Compound: CN(C)c1ccc(C(=O)NC(CSCCCC(=O)NO)C(=O)NCc2ccc(C(=O)NC3CCCc4ccccc43)cc2)cc1 (mixture of isomers) [Example 119]
- IC50 (MM96L melanoma cells; [4]): 0.93 µM
- Selectivity (MM96L melanoma cells; [5]): 1.9
- IC50 [1, 6]: 1.74 µM

Compound: O=C(CCCSC[C@H](NC(=O)c1cccc(O)c1O)C(=O)NCc1ccccc1)NO [Example 31]
- IC50 (MM96L melanoma cells; [12]): 32 ± 3 µM
- Selectivity (MM96L melanoma cells; [13]): 0.14
- IC50 [1, 14]: 4.5 ± 0.6 µM

Compound: CN(C)c1ccc(C(=O)N[C@@H](CSCCCC(=O)NO)C(=O)N2CCCCC2)cc1 [Example 91]
- IC50 (MM96L melanoma cells; [7]): 4.9 ± 0.3 µM
- Selectivity (MM96L melanoma cells; [8]): 4.2
- IC50 [1, 9]: 20 ± 2 µM

Compound: O=C(/C=C/c1ccccc1)N[C@@H](CSCCCC(=O)NO)C(=O)Nc1ccncc1 [Example 97]
- IC50 (MM96L melanoma cells; Homo sapiens, MM96L, 24 h, Table 7, 24 hours with compound, further growth, read-out: IC50 (μM) MM96L): 0.5 ± 0.2 µM
- Selectivity (MM96L melanoma cells; Table 7, IC50 (NFF)/IC50 (MM96L)): 3.3
- IC50 ([1]; Homo sapiens, Fibroblast, 24 h, Table 7, 24 hours with compound, further growth, read-out: IC50 (μM) NFF): 1.6 ± 0.3 µM

Compound: CN(C)c1ccc(C(=O)N[C@@H](CSCCCC(=O)NO)C(=O)NCCc2ccccc2)cc1 [Example 83]
- IC50 (MM96L melanoma cells; [15]): 1.4 ± 0.1 µM
- Selectivity (MM96L melanoma cells; [8]): 1.9
- IC50 [1, 16]: 2.7 ± 0.3 µM

Compound: CN(C)c1ccc(C(=O)N[C@@H](CSCCCC(=O)NO)C(=O)NC2CCN(Cc3ccccc3)CC2)cc1 [Example 90]
- IC50 (MM96L melanoma cells; [7]): 1.5 ± 0.2 µM
- Selectivity (MM96L melanoma cells; [8]): 0.9
- IC50 [1, 9]: 1.28 ± 0.08 µM

Compound: CN(C)c1ccc(NC(=O)[C@H](CCCCCC(=O)NO)NC(=O)/C=C/c2ccccc2)cc1 [Example 150]
- IC50 (MM96L melanoma cells; [10]): 0.165 µM
- SI (Selectivity Index = IC50 (NFF)/IC50 (MM96L)) (MM96L melanoma cells): 1.5
- IC50 [1, 11]: 0.24 µM

Compound: CN(C)c1ccc(NC(=O)[C@H](CCCCCC(=O)NO)NC(=O)c2ccc(C(F)(F)F)cc2)cc1 [Example 152]
- IC50 (MM96L melanoma cells; [10]): 0.222 µM
- SI (Selectivity Index = IC50 (NFF)/IC50 (MM96L)) (MM96L melanoma cells): 1.8
- IC50 [1, 11]: 0.404 µM

Compound: CN(C)c1ccc(C(=O)N[C@@H](CSCCCC(=O)NO)C(=O)NCc2ccc(C(=O)NC3CCCC3)cc2)cc1 [Example 117]
- IC50 (MM96L melanoma cells; [4]): 1.19 µM
- Selectivity (MM96L melanoma cells; [5]): 4.4
- IC50 [1, 6]: 5.27 µM

Compound: O=C(CCCCC[C@H](NC(=O)CCCc1c[nH]c2ccccc12)C(=O)NCc1ccccc1)NO [Example 163]
- IC50 (MM96L melanoma cells; [10]): 1.84 µM
- SI (Selectivity Index = IC50 (NFF)/IC50 (MM96L)) (MM96L melanoma cells): 3.8
- IC50 [1, 11]: 7.03 µM

Compound: O=C(/C=C/c1ccccc1)N[C@@H](CCCCCC(=O)NO)C(=O)NCc1ccccc1 [Example 138]
- IC50 (MM96L melanoma cells; [2]): 0.252 µM
- SI (Selectivity Index = IC50 (NFF)/IC50 (MM96L)) (MM96L melanoma cells): 4.5
- IC50 [1, 3]: 1.15 µM

Compound: CN(C)c1ccc(C(=O)N[C@@H](CSCCCC(=O)NO)C(=O)NCCc2ccc(Br)cc2)cc1 [Example 86]
- IC50 (MM96L melanoma cells; [15]): 1 ± 0.1 µM
- Selectivity (MM96L melanoma cells; [8]): 2.6
- IC50 [1, 16]: 2.6 ± 0.3 µM

Compound: O=C(CCCSC[C@H](NC(=O)c1ccc(F)cc1)C(=O)NCc1ccccc1)NO [Example 29]
- IC50 (MM96L melanoma cells; [12]): 5.2 ± 0.6 µM
- Selectivity (MM96L melanoma cells; [13]): 5.0
- IC50 [1, 14]: 26 ± 1 µM

Compound: O=C(CCCCC[C@H](NC(=O)c1cccnc1)C(=O)NCc1ccccc1)NO (racemic) [Example 134]
- IC50 (MM96L melanoma cells; [10]): 9.5 ± 0.8 µM
- SI (Selectivity Index = IC50 (NFF)/IC50 (MM96L)) (MM96L melanoma cells): 2.5
- IC50 [1, 11]: 24 ± 8 µM
